Reference: patent publication US5210193A, “Piperazine derivatives” (American Cyanamid Company, priority 1990, dated 1993)
Values after ≈ are worked out from the molar mass of the structure shown. Where two headings read alike, the source gives them in different places.

What was measured:
Experiment in all cases: in vitro antibacterial MIC, agar plate dilution
Format in all cases: cell-based
[1] = tested on: Morganella morganii CMC 84-38; conditions: Morganella morganii, CMC8438, 18 h, 35° C., read-out: MIC
Outline: (§1)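 Read-out is visible growth inhibition on Mueller-Hinton agar dilution plates incubated 18 hours at 35° C after inoculation of ~10^4 CFU (Steers device), with MIC reported in mcg/ml.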

[2] = tested on: Streptococcus faecalis UCI 85-19; conditions: Enterococcus faecalis, UCI8519, 18 h, 35° C., read-out: MIC
Outline: as §1

[3] = tested on: Streptococcus faecalis VGH 84-69; conditions: Enterococcus faecalis, VGH8469, 18 h, 35° C., read-out: MIC
Outline: as §1

[4] = tested on: Staphylococcus aureus ATTC 29213; conditions: 35° C.
Outline: as §1

[5] = tested on: Proteus rettgeri IO 83-21; conditions: Providencia rettgeri, IO8321, 18 h, 35° C., read-out: MIC
Outline: as §1

[6] = tested on: Proteus rettgeri CMC 84-41; conditions: Providencia rettgeri, CMC8441, 18 h, 35° C., read-out: MIC
Outline: as §1

[7] = tested on: Staphylococcus aureus VGH 84-45; conditions: Staphylococcus aureus, VGH8445, 18 h, 35° C., read-out: MIC
Outline: as §1

[8] = tested on: Escherichia coli CMC 84-50; conditions: Escherichia coli, CMC8450, 18 h, 35° C., read-out: MIC
Outline: as §1

[9] = tested on: Streptococcus faecalis VGH 84-65; conditions: Enterococcus faecalis, VGH8465, 18 h, 35° C., read-out: MIC
Outline: as §1

Escherichia coli LL 311 = conditions: Escherichia coli, LL311, 18 h, 35° C., read-out: MIC
Outline: as §1

[10] = tested on: Providencia stuarti CMC 83-3; conditions: Providencia, CMC833, 18 h, 35° C., read-out: MIC
Outline: as §1

[11] = tested on: Streptococcus faecalis UCI 85-30; conditions: Enterococcus faecalis, UCI8530, 18 h, 35° C., read-out: MIC
Outline: as §1

[12] = tested on: Enterobacter cloacae K 84-10; conditions: Enterobacter cloacae, K8410, 18 h, 35° C., read-out: MIC
Outline: as §1

[13] = tested on: Klebsiella pneumoniae MOR 84-24; conditions: Klebsiella pneumoniae, MOR8424, 18 h, 35° C., read-out: MIC
Outline: as §1

[14] = tested on: Staphylococcus aureus VGH 84-47; conditions: Staphylococcus aureus, VGH8447, 18 h, 35° C., read-out: MIC
Outline: as §1

[15] = tested on: Serratia marcescens IO 83-63; conditions: IO8363, 18 hours, 35° C.
Outline: as §1

[16] = tested on: Staphylococcus aureus Smith; conditions: Staphylococcus aureus, 18 h, 35° C., read-out: MIC
Outline: as §1

[17] = tested on: Klebsiella pneumoniae IO 83-5; conditions: Klebsiella pneumoniae, IO835, 18 h, 35° C., read-out: MIC
Outline: as §1

[18] = tested on: Escherichia coli VGH 84-19; conditions: Escherichia coli, VGH8419, 18 h, 35° C., read-out: MIC
Outline: as §1

[19] = tested on: Escherichia coli CMC 84-11; conditions: Escherichia coli, CMC8411, 18 h, 35° C., read-out: MIC
Outline: as §1

[20] = tested on: Serratia marcescens MOR 84-41; conditions: Serratia marcescens, MOR8441, 18 h, 35° C., read-out: MIC
Outline: as §1

[21] = tested on: Serratia marcescens CMC 83-74; conditions: Serratia marcescens, CMC8374, 18 h, 35° C., read-out: MIC
Outline: as §1

[22] = tested on: Enterobacter cloacae MOR 84-30; conditions: Enterobacter cloacae, MOR8430, 18 h, 35° C., read-out: MIC
Outline: as §1

[23] = tested on: Serratia marcescens VGH 84-30; conditions: Serratia marcescens, VGH8430, 18 h, 35° C., read-out: MIC
Outline: as §1

[24] = tested on: Morganella morganii MOR 84-45; conditions: Morganella morganii, MOR8445, 18 h, 35° C., read-out: MIC
Outline: as §1

[25] = tested on: Pseudomonas aeruginosa VGH 84-3; conditions: Pseudomonas aeruginosa, VGH843, 18 h, 35° C., read-out: MIC
Outline: as §1

[26] = tested on: Escherichia coli MOR 84-20; conditions: Escherichia coli, MOR8420, 18 h, 35° C., read-out: MIC
Outline: as §1

[27] = tested on: Staphylococcus aureus K 82-26; conditions: Staphylococcus aureus, K8226, 18 h, 35° C., read-out: MIC
Outline: as §1

[28] = tested on: Pseudomonas aeruginosa LL-1244; conditions: Pseudomonas aeruginosa, LL1244, 18 h, 35° C., read-out: MIC
Outline: as §1

[29] = tested on: Pseudomonas aeruginosa K 84-16; conditions: Pseudomonas aeruginosa, K8416, 18 h, 35° C., read-out: MIC
Outline: as §1

[30] = tested on: Klebsiella pneumoniae CMC 84-31; conditions: Klebsiella pneumoniae, CMC8431, 18 h, 35° C., read-out: MIC
Outline: as §1

[31] = tested on: Morganella morganii CMC 84-37; conditions: Morganella morganii, CMC8437, 18 h, 35° C., read-out: MIC
Outline: as §1

[32] = Staphylococcus aureus, ATTC29213, 18 h, read-out: MIC

Row | MIC [1] [µg/mL] | MIC [2] [µg/mL] | MIC [3] [µg/mL] | MIC [5] [µg/mL] | MIC [6] [µg/mL] | MIC [7] [µg/mL] | MIC [8] [µg/mL] | MIC [9] [µg/mL] | MIC (Escherichia coli LL 311) [µg/mL] | MIC [10] [µg/mL] | MIC [11] [µg/mL] | MIC [12] [µg/mL] | MIC [13] [µg/mL] | MIC [14] [µg/mL] | MIC [15] [µg/mL] | MIC [16] [µg/mL] | MIC [17] [µg/mL] | MIC [18] [µg/mL] | MIC [19] [µg/mL] | MIC [20] [µg/mL] | Compound | also measured
1 | > 16 | 16 (≈ 38.7 µM) | > 16 | > 16 | 32 (≈ 77.4 µM) | 0.5 (≈ 1.21 µM) | > 16 | 16 (≈ 38.7 µM) | 8 (≈ 19.3 µM) | > 16 | > 16 | 16 (≈ 38.7 µM) | > 16 | 2 (≈ 4.84 µM) | > 16 | 0.25 (≈ 0.605 µM) | > 16 | > 16 | 16 (≈ 38.7 µM) | > 16 | CCn1cc(C(=O)O)c(=O)c2cc(F)c(N3CCN(C)C(c4ccn(C)n4)C3)cc21 (centres unmarked) [Example 109, 1-Ethyl-6-fluoro-1,4-dihydro-7-[4-methyl-3-(1-methyl-1H-pyrazol-3-yl) -1-piperazinyl]-4-oxo-3-quinolinecarboxylic acid] | MIC ([4]; 18 hours): 1 µg/mL (≈ 2.42 µM); MIC [4, 32]: 0.5 µg/mL (≈ 1.21 µM); MIC [21]: > 16 µg/mL; MIC [22]: > 16 µg/mL; MIC [23]: > 128 µg/mL; MIC [24]: > 16 µg/mL; MIC [25]: > 16 µg/mL; MIC [26]: > 16 µg/mL; MIC [27]: > 16 µg/mL; MIC [28]: > 128 µg/mL; MIC [29]: > 16 µg/mL; MIC [30]: > 16 µg/mL
2 | 0.25 (≈ 0.649 µM) | 4 (≈ 10.4 µM) | 2 (≈ 5.19 µM) | 1 (≈ 2.59 µM) | 0.25 (≈ 0.649 µM) | 0.12 (≈ 0.311 µM) | 0.25 (≈ 0.649 µM) | 2 (≈ 5.19 µM) | 0.12 (≈ 0.311 µM) | 16 (≈ 41.5 µM) | 4 (≈ 10.4 µM) | 0.25 (≈ 0.649 µM) | 1 (≈ 2.59 µM) | 0.25 (≈ 0.649 µM) | 1 (≈ 2.59 µM) | 0.12 (≈ 0.311 µM) | 1 (≈ 2.59 µM) | 0.25 (≈ 0.649 µM) | 0.12 (≈ 0.311 µM) | 0.5 (≈ 1.3 µM) | CCn1cc(C(=O)O)c(=O)c2cc(F)c(N3CCNC(c4ccoc4)C3)cc21 (centres unmarked) [Example 94, 1-Ethyl-6-fluoro-1,4-dihydro-4-oxo-7-[3-(3-furanyl)-1-piperazinyl]-3-quinolinecarboxylic acid] | MIC [31]: 0.12 µg/mL (≈ 0.311 µM); MIC [21]: 16 µg/mL (≈ 41.5 µM); MIC [22]: 4 µg/mL (≈ 10.4 µM); MIC [23]: 8 µg/mL (≈ 20.8 µM); MIC [24]: 0.12 µg/mL (≈ 0.311 µM); MIC [25]: > 16 µg/mL; MIC [26]: 0.25 µg/mL (≈ 0.649 µM); MIC [27]: 0.25 µg/mL (≈ 0.649 µM); MIC [28]: 8 µg/mL (≈ 20.8 µM); MIC [29]: 16 µg/mL (≈ 41.5 µM); MIC [30]: 0.5 µg/mL (≈ 1.3 µM)
3 | 8 (≈ 19.3 µM) | 8 (≈ 19.3 µM) | 16 (≈ 38.7 µM) | 16 (≈ 38.7 µM) | 4 (≈ 9.67 µM) | 0.5 (≈ 1.21 µM) | 4 (≈ 9.67 µM) | 8 (≈ 19.3 µM) | 2 (≈ 4.84 µM) | > 16 | > 16 | 4 (≈ 9.67 µM) | 16 (≈ 38.7 µM) | 1 (≈ 2.42 µM) | > 16 | 0.25 (≈ 0.605 µM) | 16 (≈ 38.7 µM) | 4 (≈ 9.67 µM) | 2 (≈ 4.84 µM) | > 16 | CCn1cc(C(=O)O)c(=O)c2cc(F)c(N3CCN(C)C(c4ccnn4C)C3)cc21 (centres unmarked) [Example 110, 1-Ethyl-6-fluoro-1,4-dihydro-7-[4-methyl-3-(1-methyl-1H-pyrazol-5-yl) -1-piperazinyl]-4-oxo-3-quinolinecarboxylic acid] | MIC ([4]; 18 hours): 1 µg/mL (≈ 2.42 µM); MIC [4, 32]: 0.5 µg/mL (≈ 1.21 µM); MIC [21]: > 16 µg/mL; MIC [22]: > 16 µg/mL; MIC [23]: > 128 µg/mL; MIC [24]: 8 µg/mL (≈ 19.3 µM); MIC [25]: > 16 µg/mL; MIC [26]: 4 µg/mL (≈ 9.67 µM); MIC [27]: 16 µg/mL (≈ 38.7 µM); MIC [28]: 128 µg/mL (≈ 310 µM); MIC [29]: > 16 µg/mL; MIC [30]: 8 µg/mL (≈ 19.3 µM)
